In ChEMBL document CHEMBL1152247, “Identification of novel inhibitors of extracellular signal-regulated kinase 2 based on the structure-based virtual screening” (Bioorg Med Chem Lett, 2008):
pIC50: −log10 of the molar value.

Legend:
[1] = target: T1, Mitogen-activated protein kinase 1 (Homo sapiens, UniProt P28482); assay: Inhibition of recombinant ERK2
[2] = target: T1, Mitogen-activated protein kinase 1; assay: Inhibition of recombinant ERK2 at 100 uM
[3] = target: Mitogen-activated protein kinase 14 (Homo sapiens) (UniProt Q16539); assay: Inhibition of p38-alpha at 100 uM
Mitogen-activated protein kinase 14 (Homo sapiens), sequence (Q16539 whole entry): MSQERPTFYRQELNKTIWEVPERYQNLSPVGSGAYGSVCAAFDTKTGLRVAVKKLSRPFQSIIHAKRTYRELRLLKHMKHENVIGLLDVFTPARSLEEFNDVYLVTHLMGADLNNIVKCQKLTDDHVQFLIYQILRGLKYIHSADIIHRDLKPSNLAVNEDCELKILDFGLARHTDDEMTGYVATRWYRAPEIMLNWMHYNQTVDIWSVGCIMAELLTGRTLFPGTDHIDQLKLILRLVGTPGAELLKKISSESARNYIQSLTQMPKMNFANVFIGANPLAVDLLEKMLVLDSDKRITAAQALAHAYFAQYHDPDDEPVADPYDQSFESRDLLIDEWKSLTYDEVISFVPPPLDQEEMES

T1 sequence (P28482 whole entry): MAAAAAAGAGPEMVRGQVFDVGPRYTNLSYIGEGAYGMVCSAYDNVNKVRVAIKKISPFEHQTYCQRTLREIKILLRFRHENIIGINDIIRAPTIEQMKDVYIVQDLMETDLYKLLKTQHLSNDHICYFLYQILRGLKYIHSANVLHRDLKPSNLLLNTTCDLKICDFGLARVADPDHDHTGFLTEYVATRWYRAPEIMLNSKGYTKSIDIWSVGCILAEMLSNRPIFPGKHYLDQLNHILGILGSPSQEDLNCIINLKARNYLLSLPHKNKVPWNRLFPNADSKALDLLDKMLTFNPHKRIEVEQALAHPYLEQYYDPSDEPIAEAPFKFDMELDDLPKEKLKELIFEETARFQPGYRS

| pIC50 [1] | inhibition [2] | inhibition [3] | Compound |
| --- | --- | --- | --- |
| 4.84 |  |  | COc1cc(/C=C2\SC(=S)N(Cc3ccccc3)C2=O)ccc1O |
| 4.63 |  |  | O=C1/C(=C/C=C/c2ccccc2)SC(=S)N1Cc1ccc2c(c1)OCO2 |

Continued, compound first:

| Compound | pIC50 [1] | inhibition [2] | inhibition [3] |
| --- | --- | --- | --- |
| COc1ccccc1-c1c[nH]nc1-c1ccc(OCc2ccccc2F)cc1O | 4.56 |  |  |
| O=C1/C(=C/c2ccc(O)cc2)SC(=S)N1Cc1ccccc1 | 5.26 | 92.7% | 16.7% |
| O=C(/C=C/c1ccccc1)Nc1nc(NC(=O)c2ccccc2)nn1-c1ccccc1 | 4.59 |  |  |
| O=C(Nc1nc(NC(=O)c2ccco2)n(-c2ccccc2)n1)c1ccccc1 | 4.74 |  |  |
| O=C(Nc1nc(NC(=O)c2ccccc2)n(-c2ccccc2)n1)c1ccccc1 | 5.08 | 93.1% | 24.5% |
| Cc1ccc(COc2ccc(-c3n[nH]cc3-c3ccccc3)c(O)c2)cc1 | 4.77 | 87.9% | 12.3% |
